Literature values, collected in patent publication US10085951B2, “Curcuminoid formulations and related methods of treatment” (DESIGNS FOR HEALTH, INC., priority 2014, dated 2018).

Compound: COc1cc(/C=C/C(=O)CC(=O)/C=C/c2ccc(O)c(OC)c2)ccc1O [curcumin, 1,6-heptadiene-3,5-dione1,7-bis (4-hydroxy-3-methoxyphenyl)-(1E,6E)]
- Solubility in ethanol, dimethylsulfoxide and acetone: soluble
- Solubility in water and ether: practically insoluble
